The source of these data is patent US20200009029A1, “COSMETIC COMPOSITION COMPRISING WATER DEPLETED IN 2H AND 18O ISOTOPS” (MEDENA AG, priority 2016, published 2020).

Data set [1] in a line: Stability of verbascoside in merystem cell homogenate / carboxyl methyl cellulose mixture over thirty days (HPLC). The class given is physicochemical. The following applies: 0.1 weight-% carboxyl methyl cellulose, initial 100 μM, darkness, 25° C., 30 days. How it is done: Merystem plant cells containing highly oxydisable active principles such as polyphenols (in this example verbascoside) were homogenized in ^18O and ^2H depleted (De-O,D) water having a concentration of 99.894 weight-% (and for comparison in distilled natural water). A hydrogel-forming substance, namely carboxyl methyl cellulose was added to the solutions in a concentration of 0.1 weight-%. The final concentration of verbascoside in the mixture was determined to be 100 μM by HPLC method using chromatographic standard of verbascoside. This concentration corresponds to 6 mg/100 ml or 0.006 weight-%. The maximum of the absorbance spectrum was obtained at 278 nm and retention time 15.65 min. The mixture was left in darkness at room temperature (25° C.) for thirty days. After this period, the mixture was analyzed for the presence and concentration of verbascoside.

Data set [2] in a line: Superoxide scavenging activity (antioxidant capacity), superoxide dismutase dependent reduction of cytochrome c. The class given is biochemical.

Consider `C[C@@H]1O[C@@H](O[C@@H]2[C@@H](O)[C@H](OCCc3ccc(O)c(O)c3)O[C@H](CO)[C@H]2OC(=O)/C=C/c2ccc(O)c(O)c2)[C@H](O)[C@H](O)[C@H]1O` [verbascoside], for which the “presence and concentration of verbascoside after thirty days (HPLC)” value in data set [1] (mixture in 18O and 2H depleted (De-O,D) water) is listed as “retained practically the initial levels”; in data set [1] (mixture in distilled natural water), “did not contain any measurable amounts”. Besides, the “superoxide scavenging activity (antioxidant capacity)” value is listed as “not measurable” in data set [2] (mixture in natural water, day 30); “remained practically unchanged” in data set [2] (mixture with De-O,D water, carboxy methyl cellulose and merystem cell homogenate, to day 30); “possessed superoxide scavenging activity” in data set [2] (mixtures of Example 1, day 0).
